Experimental data: US9890368B2, “Polypeptide fragments comprising endonuclease activity and their use” (priority 2008, dated 2018)

Key:
[1] = target: PA-Nter (SEQ ID NO: 22) (Influenza A virus, UniProt P31343, G154E); assay type: binding, Influenza A virus A/Victoria/3/1975 (H3N2)
[2] = target: PA-Nter (SEQ ID NO: 22) endonuclease (Influenza A virus, UniProt P31343, G154E); assay type: biochemical, Influenza A virus A/Victoria/3/1975 (H3N2)

| Compound | apparent melting temperature [1] [°C] | effect on thermal stability of metal-free enzyme [1] | thermal stability of PA-Nter in the presence of MnCl2 [1] | inhibition of endonuclease activity on both RNA and DNA [2] | increase in thermal stability upon addition of divalent cation [1] |
| --- | --- | --- | --- | --- | --- |
| O=C(O)C(=O)CC(=O)c1ccccc1 [DPBA, 2,4-Dioxo-4-phenylbutanoic acid] | 65 | no effect | further stabilizes | inhibited in a dose dependent manner | – |
| magnesium ions | – | – | – | – | to a lesser extent |
| calcium | – | – | – | – | to a lesser extent |
| manganese ions | 57 | – | – | – | – |
